Data from the NIST ThermoML archive (doi:10.1016/j.jct.2007.05.017).

Assay: xn = mol fraction of the nth substance listed
Details: Liquid, Vibrating tube method

COC(=O)OC [dimethyl carbonate] + O=C=O
mass density [kg/m3]
Details	x2 = 0.2765	x2 = 0.4101	x2 = 0.4429	x2 = 0.5128	x2 = 0.5573	x2 = 0.6179	x2 = 0.6791	x2 = 0.6922	x2 = 0.7885	x2 = 0.7974
273 K	–	475.4	–	448.2	–	373.6	–	331.4	260.1	–
283 K	659.5	–	569.3	–	465.6	–	358.1	–	–	311.1
